Our source for the IC50 values is patent US11384055B2 (BIOMARIN PHARMACEUTICAL INC., priority 2017, dated 2022).

The target of this experiment is T1, Human GO (Homo sapiens, UniProt Q9UJM8).
T1 construct: purchased Novus Biologicals NBP1-72412
T1 sequence (Q9UJM8 1-370): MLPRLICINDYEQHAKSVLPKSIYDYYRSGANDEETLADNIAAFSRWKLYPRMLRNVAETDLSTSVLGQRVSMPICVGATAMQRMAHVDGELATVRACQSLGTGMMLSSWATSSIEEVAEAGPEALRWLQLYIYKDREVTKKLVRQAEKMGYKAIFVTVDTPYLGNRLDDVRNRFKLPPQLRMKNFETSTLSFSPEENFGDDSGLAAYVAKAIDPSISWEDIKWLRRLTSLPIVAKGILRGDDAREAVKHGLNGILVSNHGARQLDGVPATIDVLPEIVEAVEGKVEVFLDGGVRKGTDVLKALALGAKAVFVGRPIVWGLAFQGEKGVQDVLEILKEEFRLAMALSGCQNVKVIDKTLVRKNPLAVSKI
Description: GO enzymatic assay (coupled fluorescence/HRP assay, glycolate substrate). To be noted: Table 4; read-out: Range (range of IC50 values calculated from the enzymatic assays). The class given is biochemical. The method, boiled down:
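Coupled HRP/fluorescence read-out of glycolate oxidation by human GO in 50 mM potassium phosphate buffer (pH 7). Inhibitors added across a concentration range.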

As for `O=C(O)c1[nH]nnc1O[C@H]1CC[C@H](c2ccc(OC3CC3)cc2)CC1` [Example 446, 4-(((trans)-4-(4-cyclopropoxyphenyl)cyclohexyl)oxy)-1H-1,2,3-triazole-5-carboxylic acid], the IC50 (in general, the concentration at which inhibition is half-maximal) is less than 100 nM. As for `O=C(O)c1[nH]nnc1O[C@H]1CC[C@H](c2ccc(F)cc2)CC1` [Example 447, 4-(((trans)-4-(4-fluorophenyl)cyclohexyl)oxy)-1H-1,2,3-triazole-5-carboxylic acid], the half-inhibitory concentration (IC50) is less than 100 nM. Regarding `O=C(O)c1[nH]nnc1Oc1ccc(Cl)c(OC2CCC2)c1` [Example 448, 4-(4-chloro-3-cyclobutoxyphenoxy)-1H-1,2,3-triazole-5-carboxylic acid], the IC50 was less than 100 nM. To `O=C(O)c1[nH]nnc1OC1CC(c2ccc(OC(F)(F)F)cc2)C1` (stereo not shown) [Example 449, 4-(3-(4-(trifluoromethoxy)phenyl)cyclobutoxy)-1H-1,2,3-triazole-5-carboxylic acid] belongs less than 100 nM.

For the molecule `O=C(O)c1[nH]nnc1Oc1ccc(-c2ccc(-n3cccn3)cc2)cc1` [Example 450, 4-((4′-(1H-pyrazol-1-yl)-[1,1′-biphenyl]-4-yl)oxy)-1H-1,2,3-triazole-5-carboxylic acid 2,2,2-trifluoroacetate], the IC50 was less than 100 nM.

`O=C(O)c1[nH]nnc1N[C@H]1CC[C@H](c2ccc(OC(F)(F)F)cc2)CC1` [Example 451, 4-(((trans)-4-(4-(trifluoromethoxy)phenyl)cyclohexyl)amino)-1H-1,2,3-triazole-5-carboxylic acid]: the IC50 was less than 100 nM. Next, `O=C(O)c1[nH]nnc1N[C@H]1CC[C@@H](c2ccc(OC(F)(F)F)cc2)CC1` [Example 452, 4-(((cis)-4-(4-(trifluoromethoxy)phenyl)cyclohexyl)amino)-1H-1,2,3-triazole-5-carboxylic acid]: less than 100 nM; `O=C(O)c1[nH]nnc1OC1CCC(O)(c2ccc(OC(F)(F)F)cc2)CC1` (stereo not shown) [Example 453, 4-((4-hydroxy-4-(4-(trifluoromethoxy)phenyl)cyclohexyl)oxy)-1H-1,2,3-triazole-5-carboxylic acid]: 100 to 1000 nM. With `O=C(O)c1[nH]nnc1OC1CC=C(c2ccc(OC(F)(F)F)cc2)CC1` (stereo not shown) [Example 454, 4-((4′-(trifluoromethoxy)-2,3,4,5-tetrahydro-[1,1′-biphenyl]-4-yl)oxy)-1H-1,2,3-triazole-5-carboxylic acid], the concentration for half-maximal inhibition (IC50) is less than 100 nM. Consider `O=C(O)c1[nH]nnc1OC1C[C@@H]2CC(c3ccc(OC(F)(F)F)cc3)C[C@@H]2C1` (stereo partly drawn) [Example 455, 4-(((cis-3a,6a)-5-(4-(trifluoromethoxy)phenyl)octahydropentalen-2-yl)oxy)-1H-1,2,3-triazole-5-carboxylic acid], for which the IC50 was less than 100 nM. Next, `O=C(O)c1[nH]nnc1CO[C@H]1CC[C@H](c2ccc(OC(F)(F)F)cc2)CC1` [Example 456, 4-((((trans)-4-(4-(trifluoromethoxy)phenyl)cyclohexyl)oxy)methyl)-1H-1,2,3-triazole-5-carboxylic acid]: 100 to 1000 nM; `NS(=O)(=O)c1ccc([C@H]2CC[C@H](Oc3nn[nH]c3C(=O)O)CC2)cc1` [Example 457, 4-(((trans)-4-(4-sulfamoylphenyl)cyclohexyl)oxy)-1H-1,2,3-triazole-5-carboxylic acid]: less than 100 nM; `O=C(O)c1[nH]nnc1S[C@H]1CC[C@H](c2ccc(-n3cccn3)cc2)CC1` [Example 459, 4-(((trans)-4-(4-(1H-pyrazol-1-yl)phenyl)cyclohexyl)thio)-1H-1,2,3-triazole-5-carboxylic acid 2,2,2-trifluoroacetate]: less than 100 nM. Regarding `O=C(O)c1[nH]nnc1O[C@H]1CC[C@H](c2ccc(OCC3CCCCC3)cc2)CC1` [Example 460, 4-(((trans)-4-(4-(cyclohexylmethoxy)phenyl)cyclohexyl)oxy)-1H-1,2,3-triazole-5-carboxylic acid], the IC50 was less than 100 nM. `O=C(O)c1[nH]nnc1SC1C[C@@H]2CC(c3ccc(OC(F)(F)F)cc3)C[C@@H]2C1` (stereo partly drawn) [Example 461, 4-(((cis-3a,6a)-5-(4-(trifluoromethoxy)phenyl)octahydropentalen-2-yl)thio)-1H-1,2,3-triazole-5-carboxylic acid]: the IC50 was less than 100 nM. Turning to `O=C(O)c1[nH]nnc1O[C@H]1CC[C@H](c2ccc(OCCC3CCCCC3)cc2)CC1` [Example 462, 4-(((trans)-4-(4-(2-cyclohexylethoxy)phenyl)cyclohexyl)oxy)-1H-1,2,3-triazole-5-carboxylic acid], the IC50 is less than 100 nM.

On to `O=C(O)c1[nH]nnc1O[C@H]1CC[C@H](c2ccc(OCCCO)cc2)CC1` [Example 463, 4-(((trans)-4-(4-(3-hydroxypropoxy)phenyl)cyclohexyl)oxy)-1H-1,2,3-triazole-5-carboxylic acid], for which the IC50 is less than 100 nM.

Consider `CC(C)c1cc(-c2ccc([C@H]3CC[C@H](Oc4nn[nH]c4C(=O)O)CC3)cc2)[nH]n1` [Example 464, 4-(((trans)-4-(4-(3-isopropyl-1H-pyrazol-5-yl)phenyl)cyclohexyl)oxy)-1H-1,2,3-triazole-5-carboxylic acid 2,2,2-trifluoroacetate], for which the IC50 was less than 100 nM. Turning to `CN(c1nn[nH]c1C(=O)O)[C@H]1CC[C@@H](c2ccc(OC(F)(F)F)cc2)CC1` [Example 465, 4-(methyl((cis)-4-(4-(trifluoromethoxy)phenyl)cyclohexyl)amino)-1H-1,2,3-triazole-5-carboxylic acid], the half-maximal inhibitory concentration (IC50) was 100 to 1000 nM. Turning to `O=C(O)c1[nH]nnc1O[C@H]1CC[C@H](c2ccc(-c3ccn[nH]3)c(CO)c2)CC1` [Example 466, 4-(((trans)-4-(3-(hydroxymethyl)-4-(1H-pyrazol-5-yl)phenyl)cyclohexyl)oxy)-1H-1,2,3-triazole-5-carboxylic acid], the IC50 was less than 100 nM. To `O=C(O)c1[nH]nnc1O[C@H]1CC[C@@H](c2ccc(-c3ccn[nH]3)c(CO)c2)CC1` [Example 467, 4-(((cis)-4-(3-(hydroxymethyl)-4-(1H-pyrazol-5-yl)phenyl)cyclohexyl)oxy)-1H-1,2,3-triazole-5-carboxylic acid 2,2,2-trifluoroacetate] belongs less than 100 nM. Next, `CN1CCN(c2ccc([C@H]3CC[C@H](Oc4nn[nH]c4C(=O)O)CC3)cc2)CC1` [Example 468, 4-(((trans)-4-(4-(4-methylpiperazin-1-yl)phenyl)cyclohexyl)oxy)-1H-1,2,3-triazole-5-carboxylic acid 2,2,2-trifluoroacetate]: less than 100 nM. To `CC(C)(O)Cn1ccc(-c2ccc([C@H]3CC[C@H](Oc4nn[nH]c4C(=O)O)CC3)cc2)n1` [Example 469, 4-(((trans)-4-(4-(1-(2-hydroxy-2-methylpropyl)-1H-pyrazol-3-yl)phenyl)cyclohexyl)oxy)-1H-1,2,3-triazole-5-carboxylic acid 2,2,2-trifluoroacetate] belongs less than 100 nM; to `O=C(O)c1[nH]nnc1O[C@H]1CC[C@H](c2ccc(-c3ccnn3CC3(O)CCCCC3)cc2)CC1` [Example 471, 4-(((trans)-4-(4-(1-((1-hydroxycyclohexyl)methyl)-1H-pyrazol-5-yl)phenyl)cyclohexyl)oxy)-1H-1,2,3-triazole-5-carboxylic acid 2,2,2-trifluoroacetate], less than 100 nM. On to `NCCCOc1ccc([C@H]2CC[C@H](Oc3nn[nH]c3C(=O)O)CC2)cc1` [Example 472, 4-(((trans)-4-(4-(3-aminopropoxy)phenyl)cyclohexyl)oxy)-1H-1,2,3-triazole-5-carboxylic acid 2,2,2-trifluoroacetate], for which the concentration for half-maximal inhibition (IC50) is less than 100 nM.

Regarding `CCC(CC)c1cc(-c2ccc([C@H]3CC[C@H](Oc4nn[nH]c4C(=O)O)CC3)cc2)[nH]n1` [Example 473, 4-(((trans)-4-(4-(3-(pentan-3-yl)-1H-pyrazol-5-yl)phenyl)cyclohexyl)oxy)-1H-1,2,3-triazole-5-carboxylic acid], the IC50 is less than 100 nM. `CNCCCOc1ccc([C@H]2CC[C@H](Oc3nn[nH]c3C(=O)O)CC2)cc1` [Example 474, 4-(((trans)-4-(4-(3-(methylamino)propoxy)phenyl)cyclohexyl)oxy)-1H-1,2,3-triazole-5-carboxylic acid 2,2,2-trifluoroacetate]: the concentration for half-maximal inhibition (IC50) was less than 100 nM. In the case of `CN(C)CCCOc1ccc([C@H]2CC[C@H](Oc3nn[nH]c3C(=O)O)CC2)cc1` [Example 478, 4-(((trans)-4-(4-(3-(dimethylamino)propoxy)phenyl)cyclohexyl)oxy)-1H-1,2,3-triazole-5-carboxylic acid 2,2,2-trifluoroacetate], the IC50 was less than 100 nM. Turning to `CCC(O)(CC)Cn1nccc1-c1ccc([C@H]2CC[C@H](Oc3nn[nH]c3C(=O)O)CC2)cc1` [Example 479, 4-(((trans)-4-(4-(1-(2-ethyl-2-hydroxybutyl)-1H-pyrazol-5-yl)phenyl)cyclohexyl)oxy)-1H-1,2,3-triazole-5-carboxylic acid], the IC50 was less than 100 nM. As to `CC(C)(O)Cn1nccc1-c1ccc([C@H]2CC[C@H](Oc3nn[nH]c3C(=O)O)CC2)cc1` [Example 480, 4-(((trans)-4-(4-(1-(2-hydroxy-2-methylpropyl)-1H-pyrazol-5-yl)phenyl)cyclohexyl)oxy)-1H-1,2,3-triazole-5-carboxylic acid], the IC50 was less than 100 nM. As to `O=C(O)c1[nH]nnc1O[C@H]1CC[C@H](c2ccc(Cl)c(C3CCC3)c2)CC1` [Example 482, 4-(((trans)-4-(4-chloro-3-cyclobutylphenyl)cyclohexyl)oxy)-1H-1,2,3-triazole-5-carboxylic acid], the IC50 was less than 100 nM.
